Data set [1] in a line: Proteolytic stability assessed as half life of trypsin-mediated hydrolysis by RP-HPLC. Format: ADME.
The target of data set [2] is T1, Serine protease 1 (Bos taurus) (UniProt P00760).
T1 sequence (whole entry): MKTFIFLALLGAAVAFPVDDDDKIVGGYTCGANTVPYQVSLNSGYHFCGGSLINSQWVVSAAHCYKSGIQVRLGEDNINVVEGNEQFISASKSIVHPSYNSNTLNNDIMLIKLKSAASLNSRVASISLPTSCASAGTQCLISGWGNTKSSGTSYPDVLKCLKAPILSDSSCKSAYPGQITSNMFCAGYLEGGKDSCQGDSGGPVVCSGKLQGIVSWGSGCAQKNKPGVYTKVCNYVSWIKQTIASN
The experiment in a line: Inhibition of bovine beta trypsin assessed as residual activity by spectrophotometry.

For data set [3], the species on record is Bos taurus. The experiment in a line: Inhibition of bovine alpha chymotrypsin assessed as residual activity by spectrophotometry.
The nature of data set [4]: Proteolytic stability assessed as trypsin-mediated hydrolysis at pH 8.3 after 24 hrs by RP-HPLC. The format is ADME. As to conditions: read-out: Activity.
For data set [5], the target named is T1, Serine protease 1 (Bos taurus). The experiment in a line: Inhibition of bovine beta trypsin assessed as residual activity after 60 mins by spectrophotometry.
The species named for data set [6] is Bos taurus. As to the kind of experiment: Inhibition of bovine alpha chymotrypsin assessed as residual activity after 40 mins by spectrophotometry.
Data set [7] is filed under the species Bos taurus. The experiment in a line: Inhibition of bovine alpha chymotrypsin assessed as residual activity after 3 hrs by spectrophotometry.
Data set [8] deals with T1, Serine protease 1 (Bos taurus). As to the kind of experiment: Inhibition of bovine beta trypsin assessed as residual activity after 40 mins by spectrophotometry.

Activity calls are given as the source filed them. The rule behind the calls is not given here. Positions of bridges follow the written chain, without caps; N, C: chain ends. Non-standard residues stand in square brackets, D forms with d. Residues, ends and D or L forms follow the SMILES beside them. Nphe = O=C(O)CNCc1ccccc1; Abu = CC[C@H](N)C(=O)O; Nlys = NCCCCNCC(=O)O

For orientation: half-life means the time in which the quantity being followed falls by half.

As to `CC[C@H](NC(=O)[C@H](CCCNC(=N)N)NC(=O)CN)C(=O)N[C@H](C(=O)N[C@@H](Cc1ccccc1)C(=O)N[C@@H](CO)C(=O)N[C@H](C(=O)N1CCC[C@H]1C(=O)N1CCC[C@H]1C(=O)N[C@H](C(=O)N[C@@H](CC)C(=O)N[C@@H](Cc1ccccc1)C(=O)N1CCC[C@H]1C(=O)N[C@@H](CC(=O)O)C(=O)O)[C@@H](C)CC)[C@@H](C)CC)[C@@H](C)O`, the half-life in data set [1] stood at 1.25 h.
`CC[C@H](NC(=O)CNCCCCN)C(=O)N[C@H](C(=O)N(CCCCN)CC(=O)N[C@@H](CO)C(=O)N[C@H](C(=O)N1CCC[C@H]1C(=O)N1CCC[C@H]1C(=O)N[C@H](C(=O)N[C@@H](CC)C(=O)N[C@@H](Cc1ccccc1)C(=O)N1CCC[C@@H]1C(=O)N[C@@H](CC(=O)O)C(=O)O)[C@@H](C)CC)[C@@H](C)CC)[C@H](C)O`: in data set [2], the result was inactive.
On to `CC[C@H](C)[C@@H]1NC(=O)[C@@H]2CCCN2C(=O)[C@@H]2CCCN2C(=O)[C@H]([C@@H](C)CC)NC(=O)[C@H](CO)NC(=O)[C@H](CCCCN)NC(=O)[C@H]([C@@H](C)O)NC(=O)[C@@H](NC(=O)[C@H](CCCNC(=N)N)NC(=O)CN)CSSC[C@@H](C(=O)N[C@@H](Cc2ccccc2)C(=O)N2CCC[C@H]2C(=O)N[C@@H](CC(=O)O)C(=O)O)NC1=O`, for which the Ka in data set [2] came to 9.9 ×10⁹ /M; in the data set filed under Bos taurus [3], 4.9 ×10⁶ /M. The half-life in data set [1] was determined as 2.75 h.
For `CC[C@H](C)[C@@H]1NC(=O)[C@@H]2CCCN2C(=O)[C@@H]2CCCN2C(=O)[C@H]([C@@H](C)CC)NC(=O)[C@H](CO)NC(=O)[C@H](CCCCN)NC(=O)[C@H]([C@@H](C)O)NC(=O)[C@@H]2CSSC[C@H](NC1=O)C(=O)N[C@@H](Cc1ccccc1)C(=O)N1CCC[C@H]1C(=O)N[C@@H](CC(=O)O)C(=O)NCC(=O)N[C@@H](CCCNC(=N)N)C(=O)N2`, the Ka in the data set filed under Bos taurus [3] turned out to be 4.9 ×10⁶ /M. The half-life in data set [1] was found to be 7.25 h.
Regarding `CC[C@@H]1NC(=O)[C@H](CCCNC(=N)N)NC(=O)CNC(=O)[C@H](CC(=O)O)NC(=O)[C@@H]2CCCN2C(=O)[C@H](Cc2ccccc2)NC(=O)[C@H](CC)NC(=O)[C@H]([C@@H](C)CC)NC(=O)[C@@H]2CCCN2C(=O)[C@@H]2CCCN2C(=O)[C@H]([C@@H](C)CC)NC(=O)[C@H](CO)NC(=O)CN(CCCCN)C(=O)[C@H]([C@@H](C)O)NC1=O`, the half-life in data set [1] is 1.37 h.
Regarding `CC[C@H](NC(=O)[C@H](CCCNC(=N)N)NC(=O)CN)C(=O)N[C@H](C(=O)N(CC(=O)N[C@@H](CO)C(=O)N[C@H](C(=O)N1CCC[C@H]1C(=O)N1CCC[C@H]1C(=O)N[C@H](C(=O)N[C@@H](CC)C(=O)N[C@@H](Cc1ccccc1)C(=O)N1CCC[C@H]1C(=O)N[C@@H](CC(=O)O)C(=O)O)[C@@H](C)CC)[C@@H](C)CC)Cc1ccccc1)[C@@H](C)O`, in data set [4], the metabolised at 24 h came to 7%.
Turning to `CC[C@@H]1NC(=O)[C@H](CCCNC(=N)N)NC(=O)CNC(=O)[C@H](CC(=O)O)NC(=O)[C@@H]2CCCN2C(=O)[C@H](Cc2ccccc2)NC(=O)[C@H](CC)NC(=O)[C@H]([C@@H](C)CC)NC(=O)[C@@H]2CCCN2C(=O)[C@@H]2CCCN2C(=O)[C@H]([C@@H](C)CC)NC(=O)[C@H](CO)NC(=O)CN(CCCCN)C(=O)[C@H]([C@H](C)O)NC1=O`, the Ka in data set [5] came to 1.9 ×10⁸ /M.
On to `CC[C@H](NC(=O)[C@H](CCCNC(=N)N)NC(=O)CN)C(=O)N[C@H](C(=O)N[C@@H](Cc1ccccc1)C(=O)N[C@@H](CO)C(=O)N[C@H](C(=O)N1CCC[C@H]1C(=O)N1CCC[C@H]1C(=O)N[C@H](C(=O)N[C@@H](CC)C(=O)N[C@@H](Cc1ccccc1)C(=O)N1CCC[C@H]1C(=O)N[C@@H](CC(=O)O)C(=O)O)[C@@H](C)CC)[C@@H](C)CC)[C@H](C)O`, for which the result in the data set listed under Bos taurus [3] was inactive.
In the case of `CC[C@H](NC(=O)[C@@H](NC(=O)[C@@H]1CCCN1C(=O)[C@@H]1CCCN1C(=O)[C@@H](NC(=O)[C@H](CO)NC(=O)CN(CCCCN)C(=O)[C@@H](NC(=O)[C@H](CC)NC(=O)[C@@H](N)CCCCN)[C@H](C)O)[C@@H](C)CC)[C@@H](C)CC)C(=O)N[C@@H](Cc1ccccc1)C(=O)N1CCC[C@H]1C(=O)N[C@@H](CC(=O)O)C(=O)O`, the outcome in data set [2] was inactive.
`CC[C@H](C)[C@@H]1NC(=O)[C@@H]2CCCN2C(=O)[C@@H]2CCCN2C(=O)[C@H]([C@@H](C)CC)NC(=O)[C@H](CO)NC(=O)[C@H](Cc2ccccc2)NC(=O)[C@H]([C@@H](C)O)NC(=O)[C@@H](NC(=O)[C@H](CCCNC(=N)N)NC(=O)CN)CSSC[C@@H](C(=O)N[C@@H](Cc2ccccc2)C(=O)N2CCC[C@H]2C(=O)N[C@@H](CC(=O)O)C(=O)O)NC1=O` (H-GRCTFSIPPICFPD-OH; disulfide 3-11): in the data set filed under Bos taurus [3], the Ka was found to be 2 ×10⁹ /M. In addition, the half-life in data set [1] was determined as 3.03 h.
Turning to `CC[C@H](C)[C@@H]1NC(=O)[C@@H]2CCCN2C(=O)[C@@H]2CCCN2C(=O)[C@H]([C@@H](C)CC)NC(=O)[C@H](CO)NC(=O)CN(CCCCN)C(=O)[C@H]([C@@H](C)O)NC(=O)[C@@H](NC(=O)[C@H](CCCNC(=N)N)NC(=O)CN)CSSC[C@@H](C(=O)N[C@@H](Cc2ccccc2)C(=O)N2CCC[C@H]2C(=O)N[C@@H](CC(=O)O)C(=O)O)NC1=O`, the Ka in data set [2] turned out to be 1 ×10⁸ /M.
`CC[C@@H]1NC(=O)[C@H](CCCNC(=N)N)NC(=O)CNC(=O)[C@H](CC(=O)O)NC(=O)[C@@H]2CCCN2C(=O)[C@H](Cc2ccccc2)NC(=O)[C@H](CC)NC(=O)[C@H]([C@@H](C)CC)NC(=O)[C@@H]2CCCN2C(=O)[C@@H]2CCCN2C(=O)[C@H]([C@@H](C)CC)NC(=O)[C@H](CO)NC(=O)CN(Cc2ccccc2)C(=O)[C@H]([C@H](C)O)NC1=O`: the Ka in the data set filed under Bos taurus [6] came out at 6.2 ×10⁷ /M.
In the case of `CC[C@H](NC(=O)[C@H](CCCNC(=N)N)NC(=O)CN)C(=O)N[C@H](C(=O)N(CCCCN)CC(=O)N[C@@H](CO)C(=O)N[C@H](C(=O)N1CCC[C@H]1C(=O)N1CCC[C@H]1C(=O)N[C@H](C(=O)N[C@@H](CC)C(=O)N[C@@H](Cc1ccccc1)C(=O)N1CCC[C@H]1C(=O)N[C@@H](CC(=O)O)C(=O)O)[C@@H](C)CC)[C@@H](C)CC)[C@@H](C)O` (H-GR[Abu]T[Nlys]SIPPI[Abu]FPD-OH), the half-life in data set [1] was determined as 1.1 h.
Turning to `CC[C@@H]1NC(=O)[C@H](CCCNC(=N)N)NC(=O)CNC(=O)[C@H](CC(=O)O)NC(=O)[C@@H]2CCCN2C(=O)[C@H](Cc2ccccc2)NC(=O)[C@H](CC)NC(=O)[C@H]([C@@H](C)CC)NC(=O)[C@@H]2CCCN2C(=O)[C@@H]2CCCN2C(=O)[C@H]([C@@H](C)CC)NC(=O)[C@H](CO)NC(=O)[C@H](Cc2ccccc2)NC(=O)[C@H]([C@@H](C)O)NC1=O` (cyclo([Abu]FPDGR[Abu]TFSIPPI)), the Ka in the data set filed under Bos taurus [7] amounted to 1.1 ×10¹⁰ /M. In addition, the half-life in data set [1] amounted to 5.9 h. Moreover, the metabolised at 24 h in data set [4] was found to be 30%.
As to `CC[C@H](C)[C@@H]1NC(=O)[C@@H]2CCCN2C(=O)[C@@H]2CCCN2C(=O)[C@H]([C@@H](C)CC)NC(=O)[C@H](CO)NC(=O)CN(CCCCN)C(=O)[C@H]([C@H](C)O)NC(=O)[C@@H](NC(=O)[C@@H](N)CCCCN)CSSC[C@@H](C(=O)N[C@@H](Cc2ccccc2)C(=O)N2CCC[C@H]2C(=O)N[C@@H](CC(=O)O)C(=O)O)NC1=O`, the Ka in data set [8] came to 8 ×10⁷ /M.
On to `CC[C@@H]1NC(=O)[C@H](CCCNC(=N)N)NC(=O)CNC(=O)[C@H](CC(=O)O)NC(=O)[C@@H]2CCCN2C(=O)[C@H](Cc2ccccc2)NC(=O)[C@H](CC)NC(=O)[C@H]([C@@H](C)CC)NC(=O)[C@@H]2CCCN2C(=O)[C@@H]2CCCN2C(=O)[C@H]([C@@H](C)CC)NC(=O)[C@H](CO)NC(=O)CN(Cc2ccccc2)C(=O)[C@H]([C@@H](C)O)NC1=O`, for which, in data set [1], the half-life worked out at 5.87 h.
Regarding `CC[C@H](C)[C@@H]1NC(=O)[C@@H]2CCCN2C(=O)[C@@H]2CCCN2C(=O)[C@H]([C@@H](C)CC)NC(=O)[C@H](CO)NC(=O)CN(Cc2ccccc2)C(=O)[C@H]([C@@H](C)O)NC(=O)[C@@H](NC(=O)[C@H](CCCNC(=N)N)NC(=O)CN)CSSC[C@@H](C(=O)N[C@@H](Cc2ccccc2)C(=O)N2CCC[C@H]2C(=O)N[C@@H](CC(=O)O)C(=O)O)NC1=O` (H-GRCT[Nphe]SIPPICFPD-OH; disulfide 3-11), the Ka in the data set filed under Bos taurus [3] stood at 3.8 ×10⁸ /M.
For `CC[C@H](NC(=O)[C@H](CCCNC(=N)N)NC(=O)CN)C(=O)N[C@H](C(=O)N(CC(=O)N[C@@H](CO)C(=O)N[C@H](C(=O)N1CCC[C@H]1C(=O)N1CCC[C@H]1C(=O)N[C@H](C(=O)N[C@@H](CC)C(=O)N[C@@H](Cc1ccccc1)C(=O)N1CCC[C@H]1C(=O)N[C@@H](CC(=O)O)C(=O)O)[C@@H](C)CC)[C@@H](C)CC)Cc1ccccc1)[C@H](C)O`, the Ka in the data set filed under Bos taurus [6] was found to be 7 ×10⁷ /M.

Source of the values: ChEMBL document CHEMBL1150323, “Peptomeric analogues of trypsin inhibitor SFTI-1 isolated from sunflower seeds” (Bioorg Med Chem, 2008).
